This note sets out measurements from PubChem BioAssay (NCI).

Among the test systems are DU-145 prostate; HOP-92 NSCLC; IGROV1 ovarian; MDA-MB-231 breast; NCI-H226 lung; NCI-H460 lung; NCI-H522 lung; RPMI-8226 leukemia; SN12C renal; SW-620 colon.
Holding throughout (assay): NCI tumour cell line growth inhibition, 48 h

Values joined by “and” are separate entries in the source; they are usually repeats but may differ in a detail not shown here. Identical values can stand only once.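 Briefly, cells in 96-well plates were exposed to five compound concentrations for 48 h, and endpoints were estimated by linear interpolation. At the GI50, growth is halved. TGI: total growth inhibition.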

Turning to `N#C/C(=N\Nc1ccccc1)C(=O)Nc1cc(-c2ccccc2)nn1-c1ccccc1`, the GI50 in the test on DU-145 prostate was 4.08 µM; with HOP-92 NSCLC, 0.181 µM; with IGROV1 ovarian, 4.49 µM; in the test on MDA-MB-231 breast it was 3.34 µM; in the test with NCI-H226 lung, 2.8 µM; with NCI-H460 lung, 2.72 µM. The GI50 in the test on NCI-H522 lung is 2.06 µM; in the test on RPMI-8226 leukemia it was 1.8 µM; in the test with SN12C renal, 2.74 µM; with SW-620 colon it was 3.15 µM. The TGI was greater than 100 µM in the test with DU-145 prostate; 2.58 µM with HOP-92 NSCLC; greater than 100 µM in the test on IGROV1 ovarian; greater than 100 µM with MDA-MB-231 breast; greater than 100 µM with NCI-H226 lung; 22.1 µM with NCI-H460 lung. Further, the TGI in the test with NCI-H522 lung was 12.6 µM; in the test with RPMI-8226 leukemia, 39.2 µM; in the test on SN12C renal, greater than 100 µM; in the test with SW-620 colon, greater than 100 µM.
As for `CO[C@H]1C[C@](C)(O)Cc2cc3c(c(O)c21)C(=O)c1c(O)cc2c(c1C3=O)O[C@@H]1O[C@@]2(C)[C@H](O)[C@@H](N(C)C)[C@@H]1O`, the TGI was 7.14 µM in the test on DU-145 prostate; 7.76 µM and 2.96 µM in the test on HOP-92 NSCLC; 9.16 µM and 18.7 µM with IGROV1 ovarian; 8 µM with MDA-MB-231 breast; 3.26 µM and 5.15 µM in the test on NCI-H226 lung; 1.47 µM and 2.1 µM with NCI-H460 lung. Further, the TGI in the test on NCI-H522 lung was 3.67 µM and 8.17 µM; with RPMI-8226 leukemia, 3.66 µM and 10.9 µM; in the test on SN12C renal, 2.57 µM and 3.48 µM; in the test on SW-620 colon, 3.87 µM and 7.69 µM. The GI50 with HOP-92 NSCLC was 1.81 µM; with NCI-H460 lung it was 0.035 µM; in the test with NCI-H522 lung, 1.42 µM; with RPMI-8226 leukemia, 0.667 µM and 0.494 µM; with SN12C renal, 0.56 µM; in the test on SW-620 colon, 0.847 µM.
As for `COc1ccc(NC(=O)c2sc3nc(C)c(C(=O)/C=C/c4cccc(OC)c4)cc3c2N)cc1`, the GI50 was 1.64 µM in the test with DU-145 prostate; 1.51 µM in the test with HOP-92 NSCLC; 1.03 µM with IGROV1 ovarian; 1.66 µM in the test with MDA-MB-231 breast; 1.89 µM in the test on NCI-H226 lung; 1.07 µM in the test with NCI-H460 lung. Also, the GI50 in the test with NCI-H522 lung was 1.38 µM; in the test on RPMI-8226 leukemia it was 0.989 µM; with SN12C renal it was 1.43 µM; with SW-620 colon, 1.26 µM. Besides, the TGI in the test with DU-145 prostate was 5.66 µM; in the test on HOP-92 NSCLC, 9.99 µM; in the test with IGROV1 ovarian, 2.83 µM; with MDA-MB-231 breast, greater than 50 µM; in the test on NCI-H226 lung it was 10.3 µM; in the test with NCI-H460 lung, 2.45 µM. The TGI in the test with NCI-H522 lung turned out to be 5.41 µM; with RPMI-8226 leukemia, 3.08 µM; in the test on SN12C renal, 4.47 µM; in the test with SW-620 colon, 3.79 µM.
Take `CCCCCCCCCCCCCCCCOP(=O)([O-])OCC[N+](C)(C)C`: the GI50 in the test on DU-145 prostate was 4.01 µM; in the test with HOP-92 NSCLC, 1.14 µM; in the test with IGROV1 ovarian it was 0.901 µM; in the test on MDA-MB-231 breast it was 1.19 µM; with NCI-H226 lung it was 1.59 µM; in the test on NCI-H460 lung, 0.518 µM. Also, the GI50 in the test on NCI-H522 lung was 0.885 µM; in the test with RPMI-8226 leukemia, 0.39 µM; in the test with SN12C renal, 2.74 µM; in the test on SW-620 colon, 2.08 µM. Moreover, the TGI was 14.7 µM and 39.9 µM with DU-145 prostate; 3.12 µM and 15.3 µM with HOP-92 NSCLC; 3.7 µM and 14 µM in the test on IGROV1 ovarian; 10.7 µM and 56.6 µM in the test on SN12C renal; 13.9 µM and 57 µM in the test on SW-620 colon.
`O=c1oc2cc(OC/C(=N/O)c3ccc(F)cc3)ccc2c2ccccc12`: the GI50 in the test with DU-145 prostate is 18.5 µM; with HOP-92 NSCLC, 23.6 µM; in the test on IGROV1 ovarian, 23.6 µM; in the test on MDA-MB-231 breast, 14.8 µM; with NCI-H226 lung it was 22.3 µM; with NCI-H460 lung it was 16.9 µM. The GI50 with NCI-H522 lung was 17.5 µM; with RPMI-8226 leukemia it was 31.8 µM; with SN12C renal it was 20.1 µM; in the test with SW-620 colon it was 23.2 µM. The TGI in the test with DU-145 prostate is 34.7 µM; with HOP-92 NSCLC, 52.8 µM; in the test with IGROV1 ovarian, 42 µM; in the test on MDA-MB-231 breast, 30.3 µM; in the test on NCI-H226 lung, 40.6 µM; in the test with NCI-H460 lung it was 35.2 µM. In addition, the TGI in the test with NCI-H522 lung was 37 µM; with RPMI-8226 leukemia, greater than 100 µM; in the test on SN12C renal it was 37.3 µM; in the test on SW-620 colon, 44.6 µM.
For `O=C(CI)Nc1ccc(O)c2ccccc12`, the GI50 is 1.88 µM in the test with DU-145 prostate; 1.61 µM with HOP-92 NSCLC; 0.296 µM in the test on IGROV1 ovarian; 2.59 µM in the test on MDA-MB-231 breast; 1.67 µM with NCI-H226 lung; 2.13 µM in the test on NCI-H460 lung. The GI50 is 0.142 µM in the test with NCI-H522 lung, 1.65 µM in the test on RPMI-8226 leukemia, 1.61 µM in the test with SN12C renal and 0.282 µM in the test on SW-620 colon. Further, the TGI in the test with DU-145 prostate turned out to be 3.87 µM; with HOP-92 NSCLC it was 3.39 µM; in the test on IGROV1 ovarian it was 0.926 µM; in the test on MDA-MB-231 breast it was 6.69 µM; in the test on NCI-H226 lung it was 5.61 µM; in the test with NCI-H460 lung, 4.71 µM. Also, the TGI came to 0.297 µM in the test on NCI-H522 lung, 4.61 µM in the test with RPMI-8226 leukemia, 3.3 µM with SN12C renal and 0.886 µM with SW-620 colon.
Regarding `Cc1[nH]c(N)nc(=S)c1CCC(=O)O`, the TGI in the test on DU-145 prostate, with HOP-92 NSCLC, in the test with IGROV1 ovarian, in the test with MDA-MB-231 breast, with NCI-H226 lung and in the test with NCI-H460 lung was greater than 100 µM in each case. The TGI in the test on NCI-H522 lung, in the test on RPMI-8226 leukemia, in the test with SN12C renal and with SW-620 colon was greater than 100 µM each time.
With `COc1ccc2c(c1OC)C(C(Cl)(Cl)Cl)N1CCc3cc4c(cc3C1=C2)OCO4` (stereo unspecified), the TGI in the test on DU-145 prostate is 84.7 µM; with HOP-92 NSCLC it was 84.7 µM; in the test on IGROV1 ovarian, 98.2 µM; in the test on MDA-MB-231 breast, greater than 100 µM; with NCI-H226 lung it was 70.1 µM; in the test with NCI-H460 lung, 55.3 µM. Besides, the TGI in the test with NCI-H522 lung was 35.1 µM; with RPMI-8226 leukemia, 11.3 µM; with SN12C renal, greater than 100 µM; in the test on SW-620 colon it was greater than 100 µM.
`CC1(C)OC(=O)C(C#N)=C1C[n+]1ccccc1`: the TGI in the test with DU-145 prostate, in the test on HOP-92 NSCLC, in the test with IGROV1 ovarian, in the test with MDA-MB-231 breast, with NCI-H226 lung and in the test on NCI-H460 lung was greater than 10 µM each time. In addition, the TGI with NCI-H522 lung, in the test with RPMI-8226 leukemia, in the test on SN12C renal and in the test on SW-620 colon was greater than 10 µM in each case.
Take `COC1=C(Cl)C(=O)c2c(O)ccc(O)c2C1=O`: the TGI in the test with DU-145 prostate was found to be 6.83 µM; in the test with HOP-92 NSCLC it was 3.61 µM; in the test with IGROV1 ovarian it was 3.72 µM; in the test with MDA-MB-231 breast, 3.19 µM; in the test with NCI-H226 lung it was 26.1 µM; with NCI-H460 lung, 24.4 µM. The TGI is 0.564 µM in the test with NCI-H522 lung, 1.45 µM with RPMI-8226 leukemia, 2.74 µM with SN12C renal and 0.46 µM in the test on SW-620 colon.
On to `CC1(C)C2CCC1C(=O)[C@@]1(C=CC(=O)CC1)C2` (stereo partly specified), for which the TGI in the test with DU-145 prostate, with HOP-92 NSCLC, in the test with IGROV1 ovarian, with MDA-MB-231 breast, in the test with NCI-H226 lung and in the test on NCI-H460 lung was greater than 100 µM in each case. The TGI in the test on NCI-H522 lung, with RPMI-8226 leukemia, with SN12C renal and in the test on SW-620 colon was greater than 100 µM throughout.
Take `Cn1c(-c2ccccc2)c(/C=C/C2=[N+](C)c3ccccc3C2(C)C)c2ccccc21`: the GI50 with DU-145 prostate was 1.87 µM; in the test with HOP-92 NSCLC it was 0.616 µM; with IGROV1 ovarian, 1.87 µM; in the test with MDA-MB-231 breast it was 2.18 µM; with NCI-H226 lung, 2.35 µM; with NCI-H460 lung it was 0.58 µM. For the same compound, the GI50 was 0.863 µM with NCI-H522 lung, 0.167 µM with RPMI-8226 leukemia, 1.7 µM in the test on SN12C renal and 1.52 µM in the test with SW-620 colon. Further, the TGI in the test on DU-145 prostate turned out to be 12.7 µM; in the test on HOP-92 NSCLC, 4.64 µM; with IGROV1 ovarian, 6.07 µM; in the test on MDA-MB-231 breast, 22.8 µM; in the test with NCI-H226 lung, 12.2 µM; in the test on NCI-H460 lung, 8.24 µM. The TGI with NCI-H522 lung was 3.78 µM; in the test with RPMI-8226 leukemia it was 0.911 µM; in the test on SN12C renal it was 12.8 µM; in the test on SW-620 colon, 12.5 µM.
